# In patent US20110086834A1, “ALKYNYL ALCOHOLS AS KINASE INHIBITORS” (AMGEN INC., priority 2008, published 2011):
# Where two headings read alike, the source gives them in different places.
# Biological target: T1, NIK (Homo sapiens, UniProt Q99558)
# T1 construct: Both assays utilize a truncated form of NIK containing only the catalytic domain; made in house; host or cells: baculovirus expression system (insect cells implied)
# Experiment: homogenous time resolved fluorescence (HTRF) assay for NIK Ki measurement
# Type: biochemical
# [1] = truncated NIK (catalytic domain only), autophosphorylation, 10 nM enzyme, 20, 100, 200 or 500 μM ATP, room temperature, 2 hours, read-out: Ki activity in the homogenous time resolved fluorescence (HTRF) assay for NIK
# T1 sequence (Q99558 400-655 limits assumed): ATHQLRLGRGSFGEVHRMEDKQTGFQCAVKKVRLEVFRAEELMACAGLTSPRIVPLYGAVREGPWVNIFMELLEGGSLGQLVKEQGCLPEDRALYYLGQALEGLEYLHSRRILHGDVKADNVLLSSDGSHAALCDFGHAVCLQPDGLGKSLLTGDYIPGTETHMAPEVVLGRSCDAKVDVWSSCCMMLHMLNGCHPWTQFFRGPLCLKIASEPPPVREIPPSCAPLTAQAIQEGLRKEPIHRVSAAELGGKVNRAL
Compound,Ki [1] [nM],Ki [nM]
"Nc1ncc(Cl)c(N2CC3(CCOCC3)c3ccc(C#CC4(O)CCCC4)cc32)n1 [Example 205, 1-((1-(2-Amino-5-chloro-4-pyrimidinyl)-1,2,2′,3′,5′,6′-hexahydrospiro[indole-3,4′-pyran]-6-yl)ethynyl)cyclopentanol]",< 1000,–
"Nc1ncc(F)c(N2CC3(CCOCC3)c3ccc(C#CC4(O)CCCC4)cc32)n1 [Example 206, 1-((1-(2-Amino-5-fluoro-4-pyrimidinyl)-1,2,2′,3′,5′,6′-hexahydrospiro[indole-3,4′-pyran]-6-yl)ethynyl)cyclopentanol]",< 1000,–
"CNc1nc(N2CC3(CCOCC3)c3ccc(C#CC4(O)CCCC4)cc32)c2nc[nH]c2n1 [Example 207, 1-((1-(2-(Methylamino)-9H-purin-6-yl)-1,2,2′,3′,5′,6′-hexahydrospiro[indole-3,4′-pyran]-6-yl)ethynyl)cyclopentanol]",< 1000,–
"Nc1ncc(Cl)c(N2CC3(CS(=O)(=O)C3)c3ccc(C#CC4(O)CCCC4)cc32)n1 [Example 212, 1-((1-(2-Amino-5-chloro-4-pyrimidinyl)-1′,1′-dioxido-1,2-dihydrospiro[indole-3,3′-thietan]-6-yl)ethynyl)cyclopentanol]",< 1000,–
"C[C@@](O)(C#Cc1ccc2c(c1)N(c1nc(N)ncc1Cl)CC21CS(=O)(=O)C1)c1nccs1 [Example 213, (2R)-4-(1-(2-Amino-5-chloro-4-pyrimidinyl)-1′,1′-dioxido-1,2-dihydrospiro[indole-3,3′-thietan]-6-yl)-2-(1,3-thiazol-2-yl)-3-butyn-2-ol]",< 1000,–
"CC(C)(O)C#Cc1ccc2c(c1)N(c1nc(N)ncc1Cl)CC21CCS(=O)(=O)CC1 [Example 217, 4-(1-(2-Amino-5-chloro-4-pyrimidinyl)-1′,1′-dioxido-1,2,2′,3′,5′,6′-hexahydrospiro[indole-3,4′-thiopyran]-6-yl)-2-methyl-3-butyn-2-ol]",< 1000,–
"C[C@@](O)(C#Cc1ccc2c(c1)N(c1nc(N)ncc1Cl)CC21CCS(=O)(=O)CC1)c1nccs1 [Example 218, (2R)-4-(1-(2-Amino-5-chloro-4-pyrimidinyl)-1′,1′-dioxido-1,2,2′,3′,5′,6′-hexahydrospiro[indole-3,4′-thiopyran]-6-yl)-2-(1,3-thiazol-2-yl)-3-butyn-2-ol]",< 1000,–
"Nc1ncc(Cl)c(C2=CC3(CCOCC3)c3ccc(C#CC4(O)CCCC4)cc32)n1 [Example 219, 1-((3-(2-Amino-5-chloro-4-pyrimidinyl)-2′,3′,5′,6′-tetrahydrospiro[indene-1,4′-pyran]-5-yl)ethynyl)cyclopentanol]",< 1000,–
"Nc1nccc(C2=CC3(CCOCC3)c3ccc(C#CC4(O)CCCC4)cc32)n1 [Example 220, 1-((3-(2-Amino-4-pyrimidinyl)-2′,3′,5′,6′-tetrahydrospiro[indene-1,4′-pyran]-5-yl)ethynyl)cyclopentanol]",< 1000,–
"C[C@@](O)(C#Cc1ccc2c(c1)C(c1nc(N)ncc1Cl)=CC21CCOCC1)c1nccs1 [Example 221, (2R)-4-(3-(2-Amino-5-chloro-4-pyrimidinyl)-2′,3′,5′,6′-tetrahydrospiro[indene-1,4′-pyran]-5-yl)-2-(1,3-thiazol-2-yl)-3-butyn-2-ol]",< 1000,–
"CN1CCC2(C=C(c3nc(N)ncc3Cl)c3cc(C#CC4(O)CCCC4)ccc32)CC1 [Example 222, 1-((3-(2-Amino-5-chloro-4-pyrimidinyl)-1′-methylspiro[indene-1,4′-piperidin]-5-yl)ethynyl)cyclopentanol]",< 1000,–
"COCCOc1cnc(N)nc1-c1c[nH]c2ccc(C#CC3(O)CCCC3)cc12 [Example 223, 1-((3-(2-Amino-5-(2-methoxyethoxy)-4-pyrimidinyl)-1H-indol-5-yl)ethynyl)cyclopentanol]",< 1000,–
"COCCOc1cnc(N)nc1-c1c[nH]c2ccc(C#CC(C)(C)O)cc12 [Example 224, 4-(3-(2-Amino-5-(2-methoxyethoxy)-4-pyrimidinyl)-1H-indol-5-yl)-2-methyl-3-butyn-2-ol]",–,< 1000
"COCCOc1cnc(N)nc1-c1c[nH]c2ccc(C#CC3(O)CCC3)cc12 [Example 225, 1-((3-(2-Amino-5-(2-methoxyethoxy)-4-pyrimidinyl)-1H-indol-5-yl)ethynyl)cyclobutanol]",< 1000,–
"COCCOc1cnc(N)nc1-c1c[nH]c2ccc(C#CC3(O)CCOCC3)cc12 [Example 226, 4-((3-(2-Amino-5-(2-methoxyethoxy)-4-pyrimidinyl)-1H-indol-5-yl)ethynyl)tetrahydro-2H-pyran-4-ol]",1000 to 30000,–
"COc1cnc(N)nc1-c1c[nH]c2ccc(C#CC3(O)CCCC3)cc12 [Example 227, 1-((3-(2-Amino-5-methoxy-4-pyrimidinyl)-1H-indol-5-yl)ethynyl)cyclopentanol]",< 1000,–
"COCCOCCOc1cnc(N)nc1-c1c[nH]c2ccc(C#CC3(O)CCCC3)cc12 [Example 228, 1-((3-(2-Amino-5-(2-(2-methoxyethoxy)ethoxy)-4-pyrimidinyl)-1H-indol-5-yl)ethynyl)cyclopentanol]",< 1000,–
"COCCOc1cnc(N)nc1-c1c[nH]c2c(F)cc(C#CC3(O)CCCC3)cc12 [Example 229, 1-((3-(2-Amino-5-(2-methoxyethoxy)-4-pyrimidinyl)-7-fluoro-1H-indol-5-yl)ethynyl)cyclopentanol]",< 1000,–

Compound,Ki [1] [nM],Ki [nM]
"Nc1ncc(OCCN2CCOCC2)c(-c2c[nH]c3ccc(C#CC4(O)CCCC4)cc23)n1 [Example 230, 1-((3-(2-Amino-5-(2-(4-morpholinyl)ethoxy)-4-pyrimidinyl)-1H-indol-5-yl)ethynyl)cyclopentanol]",1000 to 30000,–
"Nc1ncc(OCCOCCN2CCOCC2)c(-c2c[nH]c3ccc(C#CC4(O)CCCC4)cc23)n1 [Example 231, 1-((3-(2-Amino-5-(2-(2-(4-morpholinyl)ethoxy)ethoxy)-4-pyrimidinyl)-1H-indol-5-yl)ethynyl)cyclopentanol]",< 1000,–
"Nc1ncc(OCc2cccnc2)c(-c2c[nH]c3ccc(C#CC4(O)CCCC4)cc23)n1 [Example 232, 1-((3-(2-Amino-5-(3-pyridinylmethoxy)-4-pyrimidinyl)-1H-indol-5-yl)ethynyl)cyclopentanol]",< 1000,–
"COCCOc1cnc(N)nc1-c1cn(C)c2ccc(C#CC3(O)CCCC3)cc12 [Example 233, 1-((3-(2-Amino-5-(2-methoxyethoxy)-4-pyrimidinyl)-1-methyl-1H-indol-5-yl)ethynyl)cyclopentanol]",< 1000,–
"COCCOc1cnc(N)nc1-c1cn(CCOC)c2ccc(C#CC3(O)CCCC3)cc12 [Example 234, 1-((3-(2-Amino-5-(2-methoxyethoxy)-4-pyrimidinyl)-1-(2-methoxyethyl)-1H-indol-5-yl)ethynyl)cyclopentanol]",< 1000,–
"COCCOc1cnc(N)nc1-c1c[nH]c2ccc(C#CC(O)(c3cccc(F)c3)C(F)(F)F)cc12 (centres unmarked) [Example 236, 4-(3-(2-Amino-5-(2-methoxyethoxy)-4-pyrimidinyl)-1H-indol-5-yl)-1,1,1-trifluoro-2-(3-fluorophenyl)-3-butyn-2-ol]",1000 to 30000,–
"COCCOc1cncnc1-c1c[nH]c2ccc(C#CC3(O)CCCC3)cc12 [Example 237, 1-((3-(5-(2-Methoxyethoxy)-4-pyrimidinyl)-1H-indol-5-yl)ethynyl)cyclopentanol]",< 1000,–
"Nc1ncc2c(n1)-c1c([nH]c3ccc(C#CC4(O)CCCC4)cc13)CCC2 [Example 238, 1-((2-Amino-5,6,7,8-tetrahydropyrimido[4′,′:3,4]cyclohepta[1,2-b]indol-11-yl)ethynyl)cyclopentanol]",< 1000,–
"Nc1ncc2c(n1)-c1c([nH]c3ccc(C#CC4(O)CCCCC4)cc13)CCC2 [Example 239, 1-((2-Amino-5,6,7,8-tetrahydropyrimido[4′,′:3,4]cyclohepta[1,2-b]indol-11-yl)ethynyl)cyclohexanol]",< 1000,–
"OC1(C#Cc2ccc3[nH]c4c(c3c2)-c2ncncc2CCC4)CCCC1 [Example 241, 1-(5,6,7,8-Tetrahydropyrimido[4′,′:3,4]cyclohepta[1,2-b]indol-11-ylethynyl)cyclopentanol]",< 1000,–
"Cc1ncc2c(n1)-c1c([nH]c3ccc(C#CC(C)(C)O)cc13)CCC2 [Example 242, 2-Methyl-4-(2-methyl-5,6,7,8-tetrahydropyrimido[4′,′:3,4]cyclohepta[1,2-b]indol-1′-yl)-3-butyn-2-ol]",1000 to 30000,–
"Nc1ncc2c(n1)-c1c([nH]c3ccc(C#CC4(O)CCCC4)cc13)C(=O)NC2 [Example 243, 2-Amino-11-((1-hydroxycyclopentyl)ethynyl)-5,8-dihydropyrimido[4′,′:5,6]azepino[3,4-b]indol-7(6H)-one]",< 1000,–
"CN1Cc2cnc(N)nc2-c2c(n(C)c3ccc(C#CC4(O)CCCC4)cc23)C1=O [Example 244, 2-Amino-1′-((1-hydroxycyclopentyl)ethynyl)-6,8-dimethyl-5,8-dihydropyrimido[4′,5′:5,6]azepino[3,4-b]indol-7(6H)-one]",< 1000,–
"Cn1c2c(c3cc(C#CC4(O)CCCC4)ccc31)-c1nc(N)ncc1CNC2=O [Example 245, 2-Amino-1′-((1-hydroxycyclopentyl)ethynyl)-8-methyl-5,8-dihydropyrimido[4′,5′:5,6]azepino[3,4-b]indol-7(6H)-one]",< 1000,–
"COCCN1Cc2cnc(N)nc2-c2c(n(C)c3ccc(C#CC4(O)CCCC4)cc23)C1=O [Example 246, 2-Amino-1′-((1-hydroxycyclopentyl)ethynyl)-6-(2-methoxyethyl)-8-methyl-5,8-dihydropyrimido[4′,5′:5,6]azepino[3,4-b]indol-7(6H)-one]",< 1000,–
"Cn1c2c(c3cc(C#CC4(O)CCCC4)ccc31)-c1nc(N)ncc1CN(Cc1ccccn1)C2=O [Example 247, 2-Amino-1′-((1-hydroxycyclopentyl)ethynyl)-8-methyl-6-(2-pyridinylmethyl)-5,8-dihydropyrimido[4′,′:5,6]azepino[3,4-b]indol-7(6H)-one]",< 1000,–
"CC(O)(C#Cc1ccc2c(c1)N(c1nc(N)ncc1Cl)CC21CCCOC1)c1nccs1 (centres unmarked) [Example 248, 4-(1-(2-Amino-5-chloro-4-pyrimidinyl)-1,2,5′,6′-tetrahydro-4′H-spiro[indole-3,3′-pyran]-6-yl)-2-(1,3-thiazol-2-yl)-3-butyn-2-ol]",< 1000,–
